Values of other authors in US7332525B2, “Method of treatment of prostate cancer and composition for treatment thereof” (priority 2003, dated 2008).

Legend:
[1] = tested on: metastasized prostate cancer; settings: in vivo
[2] = tested on: metastasized, hormone refractory prostate cancer; settings: high doses of tamoxifen alone; patients with metastasized and hormone refractory prostate cancer

SMILES | effect on the progression of metastasized prostate cancer [1] | effect on prostate cancer cells [2]
O=C(c1ccc(OCCN2CCCCC2)cc1)c1c(-c2ccc(O)cc2)sc2cc(O)ccc12 [raloxifene, 6-hydroxy-2(4-hydroxyphenyl)-3-[4-(2-piperdinoethoxy)benzoyl]benzo[b]thiophene] | some effect | 
CC/C(=C(\c1ccccc1)c1ccc(OCCN(C)C)cc1)c1ccccc1.O=C(O)CC(O)(CC(=O)O)C(=O)O [tamoxifen, (Z)2-[4-(1,2-diphenyl-1-butenyl)phenoxy]-N, N-dimethylethanamine 2-hydroxy-1,2,3-propanetricarboxylate (1:1)] |  | some effect
CN(C)CCOc1ccc(C(=C(CCCl)c2ccccc2)c2ccccc2)cc1 [toremifene, 4-chloro-1,2-diphenyl-1-{4-[2-(N,N-dimethylamino)ethoxy]-phenyl}-1-butene] | some effect | 
